According to patent publication US11241402B2, “Methods of treating liver fibrosis by administering 3-bromopyruvate” (The Johns Hopkins University, priority 2015, dated 2022):
Entries after “also recorded” stand apart in the source; their conditions may differ.

Tests used:
activated LX-2 cells [1] = test: Metronomic therapy of activated-LX-2 cells: morphology / phenotype; assay type: cell-based, human; details: for change in morphology / phenotype of aLX-2 cells: monotherapy, metronomic: 3-BrPA 25 μM or AICAR 0.5 mM
Description: LX-2, a human stellate cell line, was a gift of Dr. Scott L. Friedman from the Mount Sinai School of Medicine (New York, N.Y., USA). The LX-2 cells when cultured on plastic are active in fibrogenesis (Gaca et al., 2003), and these activated LX-2 cells were used in most experiments. De-activated (quiescent) LX-2 cells prepared by culturing the LX-2 cells on Matrigel (Gaca et al., 2003; Sohara et al., 2002; Troeger et al., 2012) were used as controls. The activated and de-activated LX-2 cells were then cultured in Dulbecco's Modified Eagle's Medium (DMEM) containing 10% FBS, 0.1% antibiotic (Penicillin-Streptomycin) and 0.1% Fungizone on plastic as described previously (Tang et al., 2003). Rat hepatic stellate cells were
(§1) To analyze the effect of 3-BrPA on activated-LX-2 cells, the principle of metronomic therapy, a repeated but low, nonlethal dose of 3-BrPA ([…]) was adopted. A known number of cells were plated in 6-well plates, 10 cm petri dishes or chamber slides as required and the culture media was replaced with fresh culture media containing the drug(s) on alternative days. The cells were treated for a period of 13 days for immunofluorescence studies and 6 days for all other studies including biochemical analysis. Monotherapy involved treating the cells with 3-BrPA alone or AICAR (0.5 mM) in DMEM with 2.5% FBS. The concentration of AICAR was chosen based on the prior reports (Lim et al., 2012). Combination therapy involved using half of the dose used for the monotherapy of AICAR and 3-BrPA.

activated-LX-2 cells = test: Determination of nontoxic maximum tolerated dose (cell viability, Trypan-blue exclusion or intracellular ATP); assay type: cell-based, human; details: maximum dose allowing more than 50% survival; 5-50 μM tested for 24, 48 and 72 hours
Experimental: To determine the nonlethal, maximum tolerated dose (MTD) of 3-BrPA for activated-LX-2 cells, the cell viability was assessed using either Trypan-blue exclusion or quantification of intracellular ATP level. The later was performed using the Cell-Titer Glo Assay kit (Promega Corp., Madison, Wis.) and the FLUOstar Omega plate reader (BMG Labtech, UK). In brief, cells plated in 96-well flatbottomed opaque plates were treated with different concentrations of 3-BrPA (5 μM, 10 μM, 25 μM and 50 μM) for 24, 48 and 72 hours followed by the quantification of intracellular ATP. The maximum dose of 3-BrPA that allowed more than 50% survival (a concentration <IC50) was selected for further experiments.

[2] = system: human primary hepatocytes; test: Morphology and cell viability of human primary hepatocytes at the metronomic dose; assay type: cell-based
Experimental: (§2) isolated and cultured as described previously (Anania et al., 1996). Human primary hepatocytes were obtained from Invitrogen and cultured in William's medium (without phenol red) along with plating and maintenance supplements.
as §1

activated LX-2 cells [3] = test: Immunofluorescence / immunoblot of profibrogenic markers (α-SMA, CK-18); assay type: cell-based, human; details: aLX-2 cells
Experimental: as §1
LX-2 cells were grown in chamber slides in the same media used for culture. […]
For western blotting, control and treated cells were washed in PBS, lysed in RIPA lysis buffer (Sigma-Aldrich) with a protease inhibitor cocktail and a phosphatase inhibitor cocktails (both from Sigma-Aldrich) at 4° C. using a dounce homogenizer. […] The clear supernatants were collected and the protein concentrations were analyzed using a 2-D Quant protein assay Kit (GE Healthcare) as described (Ganapathy-Kanniappan et al., 2009a). […]

activated LX-2 cells [4] = test: Gelatin zymography for MMP activity in conditioned medium, verified by immunoblot; assay type: cell-based, human; details: aLX-2 cells, zymogram and immunoblots
Experimental: as §1
The level of MMP activity in the conditioned medium of control and treated LX-2 cells and/or rat HSCs was quantified by gelatin zymography. In brief, upon the completion of drug treatment protocol, media from both control and treated cells were removed, cells were rinsed with PBS and replaced with serum-free DMEM media and cultured overnight at 37° C. prior to the collection of media containing secreted proteins for further analysis. […]

activated LX-2 cells [5] = test: Collagen staining (trichrome) and collagen mRNA by qRT-PCR; assay type: cell-based, human; details: aLX-2 cells
Experimental: Gene expression analysis was performed by using qRT-PCR with a sequence detection system (ABI 7900HT; Applied Biosystems, Bedford, Mass., USA). The total RNA was extracted and the cDNA thus synthesized were subjected to qRT-PCR analysis using SYBR Green PCR Kit (Applied Biosystems) for genes associated with invasiveness and motility like Vimentin (VIM), Cadherin-12 (CDH12), Snail (SNAI1), Transgelin (TGN) (31-33) and TaqMan PCR Kit for Coll1α (Mm 00801666_g1). The primers used for respective gene amplification were synthesized by RealTimePrimers.com (Elkins Park, Pa., USA) or Life Technologies (Coll1α): […]
Tissue sections were deparaffinized in xylene followed by rehydration through graded series of alcohol followed by staining for collagen using Masson's Trichrome stain (Sigma Aldrich, St. Louis, Mo.) or Sirius Red stain (PolySciences. Inc Warrington, Pa.). For in vitro studies, the LX-2 cells were grown in chamber slides containing appropriate growth medium. They were fixed with 4% formaldehyde for 10 minutes, rapidly rehydrated with Phosphate-buffered saline (PBS), following which, the staining was performed.

[6] = system: rat hepatic stellate cells; test: Fibrotic markers in rat hepatic stellate cells (confocal α-SMA, MMP-9 immunoblot); assay type: cell-based
Description: as §2
The level of MMP activity in the conditioned medium of control and treated LX-2 cells and/or rat HSCs was quantified by gelatin zymography. In brief, upon the completion of drug treatment protocol, media from both control and treated cells were removed, cells were rinsed with PBS and replaced with serum-free DMEM media and cultured overnight at 37° C. prior to the collection of media containing secreted proteins for further analysis. The media thus collected were concentrated using a 3000 Da centrifugal filter (Amicon Inc., Pineville, N.C., USA) at 2500 rpm for 30 minutes at 4° C. and then stored at −80° C. until further analysis. Protein (˜10 μg) samples from the conditioned media of control and treated cells were subjected to zymography as described (Kunjithapatham et al., 2014). The MMP activity was visualized as clear bands. The identity of the MMP associated with zymogram signal (activity) was verified by immunoblot analysis.

activated LX-2 cells [7] = test: Energy metabolism markers (immunofluorescence, immunoblot, lactate secretion); assay type: cell-based, human; details: aLX-2 cells
Experimental: as §1
LX-2 cells were grown in chamber slides in the same media used for culture. They were fixed with 4% formaldehyde for 10 minutes, rapidly rehydrated with Phosphate-buffered saline (PBS) and permeabilized with a 0.20% Triton X-100 solution in PBS for imaging of MCT-1, MCT-4 and ATPSE. The cells were incubated with primary antibodies in PBS for 1 hour at room temperature in a humidified chamber. They were then washed and incubated at room temperature with secondary antibody labeled with Texas Red
For western blotting, control and treated cells were washed in PBS, lysed in RIPA lysis buffer (Sigma-Aldrich) with a protease inhibitor cocktail and a phosphatase inhibitor cocktails (both from Sigma-Aldrich) at 4° C. using a dounce homogenizer. The lysates were centrifuged at 12,000×g for 15 min at 4° C. to remove any cell debris. The clear supernatants were collected and the protein concentrations were analyzed using a 2-D Quant protein assay Kit (GE Healthcare) as described (Ganapathy-Kanniappan et al., 2009a). In brief, protein samples were resolved on a 4-12% Bis-Tris gel by electrophoresis with MOPS buffer or via 12% Bis-Tris gel electrophoresis with MES running buffer (for low molecular weight targets) and blotted onto PVDF membranes (BioRad, Hercules, Calif., USA) followed by immunoblotting with specific antibodies. Immune complexes were visualized by ECL-detection kit (GE Health Care).

| Compound | change in morphology / phenotype of aLX-2 cells (activated LX-2 cells [1]) | MTD (nonlethal, maximum tolerated dose) in aLX-2 cells (activated-LX-2 cells) [µM] | stability of phenotypic changes after withdrawal of the drug (activated LX-2 cells [1]; aLX-2 cells, 6 days post-treatment) | change in morphology of aLX-2 cells in the presence of AICAR (activated LX-2 cells [1]; combination of 3-BrPA and AICAR, half of the monotherapy doses) | sensitivity / cell viability / toxicity, human primary hepatocytes ([2]; 3-BrPA 25 μM, in vitro) | morphological change of human primary hepatocytes ([2]; same metronomic dose (25 μM)) | level of CK-18 (activated LX-2 cells [3]; immunofluorescence) | level of α-SMA (activated LX-2 cells [3]; immunofluorescence and immunoblot) | secretion of MMPs (MMP-2, MMP-9) (activated LX-2 cells [4]) | α1 (I) collagen mRNA (activated LX-2 cells [5]) | collagen (trichrome staining) (activated LX-2 cells [5]; text says liver collagen) | α-SMA in rat hepatic stellate cells ([6]; confocal microscopic images) | secretion of MMP-9 in rat hepatic stellate cells ([6]; immunoblot) | expression level of lactate transporter MCT-4 (activated LX-2 cells [7]) | expression of ATPSE (F1-F0 ATPase) (activated LX-2 cells [7]) | expression of MCT-1 (activated LX-2 cells [7]) | level of lactate secretion (activated LX-2 cells [7]) | expression level of lactate dehydrogenase (LDH) (activated LX-2 cells [7]; immunoblot) | toxicity to mouse hepatocytes (mouse hepatocytes) |
| --- | --- | --- | --- | --- | --- | --- | --- | --- | --- | --- | --- | --- | --- | --- | --- | --- | --- | --- | --- |
| NC(=O)c1ncn([C@@H]2O[C@H](CO)[C@@H](O)[C@H]2O)c1N [AICAR, reference compound] | did not induce any change in morphology |  |  |  |  |  |  |  |  |  |  |  |  |  |  |  |  |  |  |
| O=C(O)C(=O)CBr [3-BrPA, 3-bromopyruvate] | induced changes in phenotype including an elongated, spindle-shaped morphology | 25 | stable, even after withdrawal of the drug | promoted the changes even in the presence of AICAR | not sensitive; also recorded: not toxic; also recorded: remained unaffected | did not under go any morphological change | prominent decrease | reduced | elevated | decreased | decreased | decrease | increase | increased | significantly downregulated | unaffected | increased | increased | not toxic |
